Experimental data reported in patent publication US7049331B2, “1,2,4-thiadiazole derivatives as melanocortin receptor modulators” (Ortho-McNeil Pharmaceutical, Inc., priority 2001, dated 2006).
Like-named read-outs stand apart in the source and are kept apart here.

Columns and labels:
[1] = molecular target: T1, melanocortin MC-4 receptor (Homo sapiens, UniProt P32245); experiment: MC-4 receptor binding (Filtration); conditions: Filtration; for IC50: read-out: IC50 MC-4 (μM) (Filtration)
T1 construct: purchased Receptor Biology Inc
Procedure: The procedures described above for the melanocortin MC-4 receptor were repeated for the melanocortin MC-3 receptor. Following the procedures described, representative compounds of the present invention were tested for binding in the MC-4 and/or MC-3 assay, as listed in Table 4.

[2] = molecular target: T1, melanocortin MC-4 receptor; experiment: Melanocortin MC-4 Receptor Binding Assay (SPA)
Procedure: Melanocortin MC-4 Receptor Binding Assay Melanocortin [MC-4]-membrane [purchased from Receptor Biology Inc] was coupled to wheat germ agglutinin coated polyvinyl toluene-Scintillation Proximity Assay beads [purchased from Amersham Pharmacia Inc.] for 30 min at 25° C. Into each well of a 96-well Opti plate [purchased from Packard, Calif.], 2.5 μg of membrane and 0.25 mg of beads were mixed in a volume of 100 μL media. […] Test compounds (1.5 μL) at 1 mM in 30% DMSO-50 mM HEPES, pH 7.4 buffer was added to separate wells on the plate. Radioactive ligand ^125I-NDP-melanocyte stimulating hormone [NEN, 2000Ci/mmol] was added to each well (48.5 μL per well, 40 pM final concentration). The plate was then sealed and let stand for 16 hr at 25° C. NDP-Melanocyte stimulating hormone peptide and α-melanocyte stimulating hormone peptide [purchased from Palomar Research Inc, 1 μM] were used as reference inhibitor compounds to define non-specific binding (N). Total binding (T) was defined using 30% DMSO-50 mM HEPES, pH 7.4 buffer. Bound radioactivity for each well (Y), measured at counts per minute (cpm) was measured in a TopCount [Packard, Calif.]. Percent inhibition was calculated as: […] The procedures described above for the melanocortin MC-4 receptor were repeated for the melanocortin MC-3 receptor. Following the procedures described, representative compounds of the present invention were tested for binding in the MC-4 and/or MC-3 assay, as listed in Table 4.

Hippocampal Cells = experiment: Neurite Cell Outgrowth Assay, hippocampal cells; type: cell-based; conditions: Rattus norvegicus; 50 nM; percent change over the vehicle response; NA = no change/not active
Description: (§1) Dissociated hippocampal and cortical cell cultures were established from embryonic day 18 rat fetuses as described by Mattson, M. P., Barger, S. W., Begley, J, and Mark, R. J., Methods Cell Biol., 1994, 46:[…]. Briefly, fetuses were removed via cesarean section from pregnant moms (Sprague-Dawley) and anesthetized with halothane according to the AVMA Panel on Euthanasia. Pups were decapitated and the brains were removed and placed in HEPES-buffered Hank's Balanced Salt solution (HBSS; Gibco). The hippocampi and cortices were dissected out and pooled according to tissue-type. Tissue was trypsinized for 15 min (1 mg/ml trypsin-HBSS; Worthington), rinsed with fresh HBSS, incubated in trypsin inhibitor (1 mg/ml; Sigma) for 5 min, rinsed again with fresh HBSS and then triturated in 1 ml fresh HBSS with a fire-polished glass pipette. Dissociated cells were seeded at 30,000 cells/well onto poly-D-lysine coated 96-well plates (Collaborative BioScience). Each well contained 100 μl of Eagle's Minimal Essential Media (MEM; Gibco) supplemented with 26 mM NaHCO3 (Sigma), 56 mM glucose (Sigma), 15 mM KCl (Sigma), 1 mM sodium pyruvate (Sigma), 1.1 mM L-glutamine (Sigma), 10% (v/v) heat-inactivated fetal bovine serum (Hyclone), and 0.001% gentamicin sulfate (Sigma) (pH 7.4). Cells were allowed to attach for 24 h in a humidified 37° C. 5% CO2 incubator before experimental treatment. The culture media was aspirated and exchanged with fresh media every 3 days.
(§2) Twenty-four hours after plating, cultures were treated with vehicle (PBS+0.1% BSA), alpha-melanocyte stimulating hormone (α-MSH) or test compound (diluted in DPBS). Each treatment condition was run in quadruplicate. On the third day in culture, the media was aspirated off and replaced with fresh media and test compound. At one week in culture, the cells were fixed with 10% phosphate-buffered formalin for 15 min, then rinsed with DPBS (Sigma) and placed in blocking serum for 30 min (horse serum; 1:50 dilution in DPBS; Vector Labs). The cultures were rinsed again with DPBS and then incubated in primary antibody for 2 hr (microtubule-associated protein-2 (MAP-2) is a selective marker for dendritic processes; anti-mouse monoclonal (Chemicon); 1:1000 dilution of MAP-2 in antibody diluent (Zymed)). Negative control wells were incubated in antibody diluent alone. Background signal was determined by blank wells (cell-free) incubated with or without antibody. Cultures were rinsed again with DPBS and then placed in fluorescein for 1 hr (FITC; anti-mouse IgG; rat adsorbed; 1:50 dilution in DPBS; Vector Labs). Cultures were rinsed a final time with DPBS and the plates were then read on a Cytofluor 4000 fluorescence plate reader. Neurite outgrowth was expressed as percent change from control (vehicle).
(§3) The data are expressed as percent change over the vehicle response. All compounds were screened at 50 nM. The abbreviation NA indicates no change/not active; the abbreviation ND indicates a compound not tested/response not determined.

Cortical Cells = experiment: Neurite Cell Outgrowth Assay, cortical cells; type: cell-based; conditions: Rattus norvegicus; 50 nM; percent change over the vehicle response; NA = no change/not active
Description: as §1, §2, §3

Food-Deprived Rats = experiment: Rodent Feeding: Food Intake in Food-Deprived Rats (MC-4); type: in vivo, rat; conditions: Rattus norvegicus
Description: Rodent Feeding: Food Intake in Food-Deprived Rats (MC-4)
Male Long-Evans rats (180–200 grams) were housed individually and maintained on a once-a-day feeding schedule (i.e.10 a.m. until 4 p.m.) for five days following quarantine to allow the animals to acclimate to feeding on powdered chow (#5002 PMI Certified Rodent Meal) during the allotted time. The chow was made available in an open jar, anchored in the cage by a wire, with a metal follower covering the food to minimize spillage. Water was available ad-libitum.
Animals were fasted for 18 hours prior to testing. At the end of the fasting period, animals were administered either a test compound or vehicle. Vehicle and test compound were administered either orally (5 mL/kg) 60 minutes prior to the experiment, subcutaneously (1 mL/kg) 30 minutes prior to the experiment, or intraperitoneally (1 mL/kg) 30 minutes prior to the experiment. Test compounds were administered orally as a suspension in aqueous 0.5% methylcellulose-0.4% Tween 80, or intraperitoneally as a solution or suspension in PEG 200; compound concentrations typically ranged from 1 mg/kg to 100 mg/kg, preferably from 10–30 mg/kg. Food intake was measured at 2, 4, and 6 hours after administration by weighing the special jar containing the food before the experiment and at the specified times. Upon completion of the experiment, all animals were given a one-week washout period before re-testing.
Following the procedure described above, select compounds of the present invention were tested to measure the effect on food intake in fasted rats, as listed in Table 5 and 6.

[3] = ip, 2 h, ip, read-out: Change in Food Intake 0–2 hrs (%)
[4] = ip, 6 h, ip, read-out: Change in Food Intake 2–6 hrs (%)
[5] = po, 2 h, po, read-out: Change in Food Intake 0–2 hrs (%)
[6] = po, 6 h, po, read-out: Change in Food Intake 2–6 hrs (%)

T1 sequence (P32245 whole entry): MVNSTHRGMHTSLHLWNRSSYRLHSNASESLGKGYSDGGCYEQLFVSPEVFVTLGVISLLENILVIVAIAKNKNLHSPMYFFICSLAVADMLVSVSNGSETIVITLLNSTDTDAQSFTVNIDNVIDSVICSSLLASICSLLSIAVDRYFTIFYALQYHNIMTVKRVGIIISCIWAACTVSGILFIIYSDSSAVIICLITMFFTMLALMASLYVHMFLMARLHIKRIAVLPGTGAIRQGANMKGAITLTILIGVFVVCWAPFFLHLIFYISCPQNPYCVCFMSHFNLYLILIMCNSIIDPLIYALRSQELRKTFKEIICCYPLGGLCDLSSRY

Row | Compound | IC50 [1] | IC50 [2] | activation at 0.05 µM (Hippocampal Cells) | activation at 0.05 µM (Cortical Cells) | also measured
1 | Cc1ccc(-[n+]2sc(Nc3ccccc3)nc2-c2ccccc2)cc1 [Compound 2] | 1.5 µM | 234 nM | 18% | 18% | 
2 | COc1ccccc1Nc1nc(-c2ccccc2)[n+](-c2ccc(C)cc2)s1 [Compound 3] | 0.7 µM | 159 nM | 17% | 23% | 
3 | Cc1ccc(Nc2nc(-c3ccccc3)[n+](-c3ccc(C)cc3)s2)cc1 [Compound 4] |  | 297 nM | 20% | 21% | IC50 MC-4 (μM) (Filtration) [1]: inactive
4 | Cc1ccc(-[n+]2sc(Nc3ccccc3C)nc2-c2ccccc2)cc1 [Compound 5] | 1.3 µM | 207 nM | 28% | 9% | 
5 | Cc1ccc(-[n+]2sc(Nc3ccc(Cl)cc3)nc2-c2ccccc2)cc1 [Compound 6] | 2.5 µM | 293 nM | 23% | 24% | 
6 | Cc1ccc(-[n+]2sc(Nc3ccccc3Cl)nc2-c2ccccc2)cc1 [Compound 7] | 2.2 µM | 218 nM |  | 11% | 
7 | Cc1ccccc1-[n+]1sc(Nc2ccccc2)nc1-c1ccccc1 [Compound 8] | 1.4 µM | 201 nM |  | 12% | 
8 | COc1ccc(Nc2nc(-c3ccccc3)[n+](-c3ccccc3C)s2)cc1 [Compound 9] | 1.1 µM | 217 nM |  |  | 
9 | COc1ccccc1Nc1nc(-c2ccccc2)[n+](-c2ccccc2C)s1 [Compound 10] | 2.3 µM | 130 nM | 7% | 11% | 
10 | Cc1ccc(Nc2nc(-c3ccccc3)[n+](-c3ccccc3C)s2)cc1 [Compound 11] | 2.4 µM | 243 nM | 9% | 10% | 
11 | Cc1ccccc1Nc1nc(-c2ccccc2)[n+](-c2ccccc2C)s1 [Compound 12] |  |  | 28% | 20% | IC50 MC-4 (μM) (Filtration) [1]: insoluble; IC50 MC-4 (nM) (SPA) [2]: insoluble
12 | Cc1ccccc1-[n+]1sc(Nc2ccc(Cl)cc2)nc1-c1ccccc1 [Compound 13] | 3.4 µM | 347 nM | 29% | 32% | 
13 | Cc1ccccc1-[n+]1sc(Nc2ccccc2Cl)nc1-c1ccccc1 [Compound 14] | 5.6 µM | 234 nM | 30% | 19% | 
14 | Clc1ccc(-[n+]2sc(Nc3ccccc3)nc2-c2ccccc2)cc1 [Compound 15] | 4.5 µM | 482 nM | 18% | 31% | 
15 | Cc1ccccc1Nc1nc(-c2ccccc2)[n+](-c2ccc(Cl)cc2)s1 [Compound 19] | 3.9 µM | 460 nM | 22% |  | 
16 | Clc1ccc(Nc2nc(-c3ccccc3)[n+](-c3ccc(Cl)cc3)s2)cc1 [Compound 20] | 3.5 µM | 636 nM | 17% |  | 
17 | Cc1ccccc1Nc1nc(-c2ccccc2)[n+](-c2ccccc2)s1 [Compound 26] |  | 63 nM | 16% | 47% | change in vivo at 10 mg/kg (Food-Deprived Rats; [3]): -12.7%; change in vivo at 10 mg/kg (Food-Deprived Rats; [4]): -32.3%
18 | Clc1ccc(Nc2nc(-c3ccccc3)[n+](-c3ccccc3)s2)cc1 [Compound 27] |  | 89 nM | 17% | 52% | change in vivo at 30 mg/kg (Food-Deprived Rats; [3]): -27.4%; change in vivo at 30 mg/kg (Food-Deprived Rats; [4]): -29.1%
19 | COc1ccc(Nc2nc(-c3ccccc3)[n+](-c3ccccc3OC)s2)cc1 [Compound 29] |  | 48 nM |  | 8% | change in vivo at 10 mg/kg (Food-Deprived Rats; [3]): -62.3%; change in vivo at 10 mg/kg (Food-Deprived Rats; [4]): -70.7%; change in vivo at 30 mg/kg (Food-Deprived Rats; [5]): -26.3%; change in vivo at 30 mg/kg (Food-Deprived Rats; [6]): -3.7%
20 | COc1ccccc1-[n+]1sc(Nc2ccccc2C)nc1-c1ccccc1 [Compound 32] |  | 48 nM |  | 6% | change in vivo at 10 mg/kg (Food-Deprived Rats; [3]): -29.6%; change in vivo at 10 mg/kg (Food-Deprived Rats; [4]): -60.2%; change in vivo at 1 mg/kg (Food-Deprived Rats; [5]): -13.8%; change in vivo at 3 mg/kg (Food-Deprived Rats; [5]): -11.5%; change in vivo at 10 mg/kg (Food-Deprived Rats; [5]): -20%; change in vivo at 30 mg/kg (Food-Deprived Rats; [5]): -12.5%; change in vivo at 1 mg/kg (Food-Deprived Rats; [6]): 26%; change in vivo at 3 mg/kg (Food-Deprived Rats; [6]): 31.2%; change in vivo at 10 mg/kg (Food-Deprived Rats; [6]): -1%; change in vivo at 30 mg/kg (Food-Deprived Rats; [6]): -15%
21 | COc1ccccc1-[n+]1sc(Nc2ccccc2Cl)nc1-c1ccccc1 [Compound 34] |  | 46 nM |  | 22% | change in vivo at 10 mg/kg (Food-Deprived Rats; [3]): -38%; change in vivo at 10 mg/kg (Food-Deprived Rats; [4]): -72%; change in vivo at 10 mg/kg (Food-Deprived Rats; [5]): -1.3%; change in vivo at 30 mg/kg (Food-Deprived Rats; [5]): -7.5%; change in vivo at 10 mg/kg (Food-Deprived Rats; [6]): -6%; change in vivo at 30 mg/kg (Food-Deprived Rats; [6]): 2%
22 | Clc1ccccc1Nc1nc(-c2ccccc2)[n+](-c2ccccc2)s1 [Compound 49] |  | 96 nM | 16% | 51% | change in vivo at 30 mg/kg (Food-Deprived Rats; [3]): -20.6%; change in vivo at 30 mg/kg (Food-Deprived Rats; [4]): -21.2%
